Measured values taken from article PMC6385203, “Mutations in the palm domain disrupt modulation of acid-sensing ion channel 1a currents by neuropeptides” (Scientific Reports, 2019).
Peptide text beside a SMILES is read from it.

Target: T1, ASIC1a N416C (Homo sapiens, UniProt P78348, N416C)
T1 construct: expressed in transfected cells; host or cells: Xenopus laevis oocytes injected with cRNA
T1 sequence (P78348 1-528 N416C): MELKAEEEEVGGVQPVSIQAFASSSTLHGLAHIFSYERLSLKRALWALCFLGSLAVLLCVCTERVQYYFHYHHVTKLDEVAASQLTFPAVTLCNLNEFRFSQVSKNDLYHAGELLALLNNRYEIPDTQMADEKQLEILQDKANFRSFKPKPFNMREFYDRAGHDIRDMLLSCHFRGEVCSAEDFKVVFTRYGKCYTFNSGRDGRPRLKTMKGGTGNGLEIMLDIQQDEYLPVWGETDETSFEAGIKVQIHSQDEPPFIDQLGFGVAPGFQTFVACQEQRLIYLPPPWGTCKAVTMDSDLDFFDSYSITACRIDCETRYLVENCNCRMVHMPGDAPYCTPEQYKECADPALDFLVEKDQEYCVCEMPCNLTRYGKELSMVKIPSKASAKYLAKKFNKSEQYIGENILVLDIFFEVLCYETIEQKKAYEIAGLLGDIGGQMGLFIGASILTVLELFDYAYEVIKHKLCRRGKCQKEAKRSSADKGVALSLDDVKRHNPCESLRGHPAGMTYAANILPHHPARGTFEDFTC
Assay: Disappearance of FRRFa-induced Isust on washout, N416C
Type: cell-based
Conditions: washout after 50 μM FRRFa 45 s, n = 9
Method: Figure 6 Mutations of the palm change FRRFa modulation of ASIC1a. Mutants containing “-ET” in their name had been exposed during 3 min to 1 mM MTSET prior to the experiment. (a) Representative current traces of the mutant E418C in the absence and presence of 50 μM FRRFa. (b) Bar graph of the Isust/Ipeak ratio induced by pH5 of WT and mutants as indicated (n = 5–41). For (b,g–i) *p < 0.05; **p < 0.01, ***p < 0.001, ****p < 0.0001, different from WT. (c) Ratio of 50 μM FRRFa-induced increase in Isust/Ipeak (n = 5–41). (d) Ratio of 500 μM FRRFa-induced increase in Isust/Ipeak (n = 5–11). For (b–d) ^#p < 0.05; ^##p < 0.01; ^###p < 0.001; ^####p < 0.0001; ratio different from the ratio in WT. (e) FRRFa concentration-response curve of the Isust/Ipeak current ratio induced by pH5 in oocytes expressing N416C, n = 8. The WT curve is shown for comparison (n = 7–11). (f) Time course of disappearance of the FRRFa-induced sustained current in the N416C mutant and in WT. 50 μM FRRFa was applied for 45 s, and then washed out. […]
Electrophysiological measurements were performed 1–2 days after cRNA injection. Ion currents were recorded using two-electrode voltage-clamp at a holding potential of −60 mV with a Dagan TEV-200 amplifier (Minneapolis, MN). […] The amplitude of the sustained current was measured in the last two seconds of the pH5 perfusion. […]

Structure (SMILES): N=C(N)NCCC[C@H](NC(=O)[C@H](CCCNC(=N)N)NC(=O)[C@@H](N)Cc1ccccc1)C(=O)N[C@@H](Cc1ccccc1)C(N)=O [FRRFa, Phe-Arg-Arg-Phe-amide] (H-FRRF-NH2)
- koff: 0.027 ± 0.003 s⁻¹
